Test results as given in patent US20120316105A1, “Polymyxin Derivates Useful As Antibacterial Agents” (priority 2011, published 2012).
Bridge positions count the residues as written; N and C are the ends. Square brackets hold non-standard residues; d marks the D form. Peptide text beside a SMILES is read from it. * marks the point of attachment. X18 = N#Cc1ccc(-c2cc(C(=O)*)ccc2C#N)cc1; X33 = N#Cc1ccc(-c2cc(C(=O)*)ccc2Cl)cc1; 2Naphthoyl = O=C(c1ccc2ccccc2c1)*; X5 = O=C(c1ccnc(-c2cccc(F)c2)c1)*; X12 = O=C(c1cccc(-c2ccccc2F)c1)*; Dab = NCC[C@H](N)C(=O)O; Dap = NC[C@H](N)C(=O)O

Columns and labels:
[1] = system: AB-1649, polymyxin-resistant clinical isolate of Acinetobacter baumannii; assay type: cell-based; conditions: AB-1649, polymyxin-resistant clinical isolate of
Experimental: (§1) Minimum bactericidal concentration (MBC, mg/L), minimum inhibitory concentration (MIC, mg/L), and human renal proximal tubule epithelial cell line cytotoxicity concentration 50% (hRPTEC, TC50, micromolar) for compounds of Formula I are listed in Table 2. The compounds of Formula I were tested as the corresponding trifluoroacetate salt except for Example 1 which was tested as the sulfate salt. For Table 2 below: PMB=polymyxin B as the sulfate salt (Bedford Laboratories, pharmaceutical grade); PMB1=polymyxin B1 as the trifluoroacetate salt; Nona=polymyxin B nonapeptide as the trifluoroacetate salt. PMB1 and Nona were prepared using the solid phase methodology described in the experimental section herein.
(§2) The in vitro antibacterial activity of compounds of Formula I was evaluated by MIC testing according to Clinical and Laboratory Standards Institute (CLSI). See: Clinical and Laboratory Standards Institute. Methods for Dilution Antimicrobial Susceptibility Tests for Bacteria that Grow Aerobically; Approved Standard-Eighth Edition. CLSI document M7-A8 [ISBN 1-56238-689-1]. Clinical and Laboratory Standards Institute, 940 West Valley Road, Suite 1400, Wayne, Pa. 19087-1898 USA, 2006; also Clinical and Laboratory Standards Institute. Performance Standards for Antimicrobial Susceptibility Testing; Twentieth Informational Supplement. CLSI document M100-S20 [ISBN 1-56238-716-2]. Clinical and Laboratory Standards Institute. Methods for Determining Bactericidal Activity of Antimicrobial Agents; Approved Guideline. CLSI document M26-A (ISBN 1-56238-384-1). CLSI, 940 West Valley Road, Suite 1400, Wayne, Pa. 19087-1898 USA, 1999.
AB-1649 is a polymyxin-resistant clinical isolate of Acinetobacter baumannii obtained from JMI labs (www.jmilabs.com);

[2] = Cytotoxicity assay (LDH release), hRPTEC; assay type: cell-based, human; conditions: human
Experimental: as §1
Human Renal Proximal Tubule Epithelial cells (hRPTEC) were obtained from Lonza (Walkersville, Md., USA) and cultured in REGM (Renal Epithelial Cell Basal Medium supplemented with human epithelial growth factor, hydrocortisone, epinephrine, insulin, triiodothyronine, transferrin, gentamycin/amphotericin-B, and fetal bovine serum). The hRPTEC cells were seeded into 96-well plates and incubated at 37° C. in 5% CO2. Following a growth period of 72 hours, cells were treated with compounds at 100, 67, 44, 30, 20 and 13 micromolar for 24 hours at 37° C. in 5% CO2. The cell supernatant was then harvested for determination of LDH (lactate dehydrogenase) production. The Cytotoxicity Detection Kit from Roche was used for the measurement of LDH activity released from damaged cells. The Toxic Concentration 50% (TC50, micromolar) values were determined for each compound and compared to the control compounds (polymyxin B was used as a positive control and polymyxin B nonapepetide was used as negative control).

[3] = system: AB-3167, clinical isolate of Acinetobacter baumannii; assay type: cell-based; conditions: AB-3167, clinical isolate of
Experimental: as §1, §2
(§3) The MIC determination is a standard laboratory method for evaluating the antibacterial activity of a compound. The MIC represents the lowest drug concentration that inhibits visible growth of bacteria following overnight incubation. […] Typically, the drug concentration range is broken down into 2-fold increments (e.g. 0.06 mg/L, 0.12 mg/L, 0.25 mg/L, 0.50 mg/L, 1.0 mg/L, etc.) and the various drug concentrations are all individually incubated overnight with approximately the same number of bacteria. The MIC is then determined by visually inspecting the drug effect at each concentration, and identifying the lowest drug concentration that has inhibited bacterial growth as compared to the drug free control. Typically, bacteria continue to grow at drug concentrations lower than the MIC and don't grow at concentrations at and above the MIC.
(§4) The MIC values described in Table 2 below were derived from assays wherein each test compound was evaluated in duplicate. In cases where the duplicate values varied by 0-2-fold, the lower of the two values was reported below. Generally speaking, if the duplicate values varied by more than 2-fold, the assay was considered non-valid and was repeated until the variation between duplicate runs was ≦2-fold. In line with the CLSI guidelines referred to above, both control organisms and reference compounds were utilized in each MIC assay to provide proper quality control. MIC values generated with these control organisms and reference compounds were required to fall within a defined range for the assay to be considered valid and be included herein. Those skilled in the art will recognize that MIC values can and do vary from experiment to experiment. Generally speaking, it should be recognized that MIC values often vary +/−2-fold from experiment to experiment. While a single MIC is reported for each compound and each microorganism, the reader should not conclude that each compound was only tested once. Several of the compounds were subjected to multiple tests. The data reported in Table 2 is reflective of the compounds relative activity and different MICs may have been generated on these occasions in line with the guidelines described above.
(§5) The following bacterial strains were used in these MIC determinations: […]

[4] = system: PA-1646, polymyxin-resistant clinical isolate of Pseudomonas aeruginosa; assay type: cell-based; conditions: PA-1646, polymyxin-resistant clinical isolate of
Experimental: as §1, §2, §3, §4, §5

[5] = system: AB-1649, polymyxin-resistant clinical isolate of Acinetobacter baumannii; assay type: cell-based; conditions: AB-1649, polymyxin-resistant clinical isolate of; remark: listed apart in the source
Experimental: as §1, §2, §3, §4, §5

[6] = system: Pseudomonas aeruginosa strain PA01; assay type: cell-based; conditions: strain
Experimental: as §1, §2, §3, §4, §5

[7] = system: PA-1646, polymyxin-resistant clinical isolate of Pseudomonas aeruginosa; assay type: cell-based; conditions: PA-1646, polymyxin-resistant clinical isolate of; remark: listed apart in the source
Experimental: as §1, §2
PA-1646 is a polymyxin-resistant clinical isolate of Pseudomonas aeruginosa obtained from JMI labs (www.jmilabs.com);

[8] = system: EC-1, mouse virulent strain of Escherichia coli; assay type: cell-based; conditions: E. coli EC-1; overnight incubation, lower of duplicate values; trifluoroacetate salt (Example 1 and PMB sulfate)
Experimental: as §1, §2, §3, §4
The following bacterial strains were used in these MIC determinations:
EC-1 is a mouse virulent strain of Escherichia coli.

SMILES | AB-1649 MBC [1] | CC50 at 24 h [2] | AB-3167 MIC [3] | PA-1646 MIC [4] | AB-1649 MIC [5] | PA01 MIC [6] | PA-1646 MBC [7] | EC-1 MIC [8]
CC(C)C[C@@H]1NC(=O)[C@@H](Cc2ccccc2)NC(=O)[C@H](CCN)NC(=O)[C@@H](NC(=O)[C@H](CN)NC(=O)[C@@H](NC(=O)[C@H](CCN)NC(=O)c2ccnc(-c3cccc(F)c3)c2)[C@@H](C)O)CCNC(=O)[C@H]([C@@H](C)O)NC(=O)[C@H](CCN)NC(=O)[C@H](CCN)NC1=O [Example 7] (X5-[Dab]T[Dap][Dab][Dab][dF]L[Dab][Dab]T; lactam 4-C) | 1 µg/mL | 41 µM | 0.25 µg/mL | 2 µg/mL | 1 µg/mL | 0.5 µg/mL | 8 µg/mL | 0.125 µg/mL
CC(C)C[C@@H]1NC(=O)[C@@H](Cc2ccccc2)NC(=O)[C@H](CCN)NC(=O)[C@@H](NC(=O)[C@H](CN)NC(=O)[C@@H](NC(=O)[C@H](CCN)NC(=O)c2cccc(-c3ccccc3F)c2)[C@@H](C)O)CCNC(=O)[C@H]([C@@H](C)O)NC(=O)[C@H](CCN)NC(=O)[C@H](CCN)NC1=O [Example 9] (X12-[Dab]T[Dap][Dab][Dab][dF]L[Dab][Dab]T; lactam 4-C) | 2 µg/mL | 24 µM | 0.25 µg/mL | 2 µg/mL | 1 µg/mL | 0.5 µg/mL | 2 µg/mL | 0.25 µg/mL
CC(C)C[C@@H]1NC(=O)[C@@H](Cc2ccccc2)NC(=O)[C@H](CCN)NC(=O)[C@@H](NC(=O)[C@H](CN)NC(=O)[C@@H](NC(=O)[C@H](CCN)NC(=O)c2ccc(C#N)c(-c3ccc(C#N)cc3)c2)[C@@H](C)O)CCNC(=O)[C@H]([C@@H](C)O)NC(=O)[C@H](CCN)NC(=O)[C@H](CCN)NC1=O [Example 13] (X18-[Dab]T[Dap][Dab][Dab][dF]L[Dab][Dab]T; lactam 4-C) | 2 µg/mL | 58 µM | 0.25 µg/mL | 2 µg/mL | 2 µg/mL | 0.5 µg/mL | 4 µg/mL | 0.25 µg/mL
CC(C)C[C@@H]1NC(=O)[C@@H](Cc2ccccc2)NC(=O)[C@H](CCN)NC(=O)[C@@H](NC(=O)[C@H](CN)NC(=O)[C@@H](NC(=O)[C@H](CCN)NC(=O)c2ccc3ccccc3c2)[C@@H](C)O)CCNC(=O)[C@H]([C@@H](C)O)NC(=O)[C@H](CCN)NC(=O)[C@H](CCN)NC1=O [Example 6] (2Naphthoyl-[Dab]T[Dap][Dab][Dab][dF]L[Dab][Dab]T; lactam 4-C) | 2 µg/mL | 51 µM | 0.25 µg/mL | 4 µg/mL | 2 µg/mL | 0.5 µg/mL | 16 µg/mL | 0.125 µg/mL
CC(C)C[C@@H]1NC(=O)[C@@H](Cc2ccccc2)NC(=O)[C@H](CCN)NC(=O)[C@@H](NC(=O)[C@H](CN)NC(=O)[C@@H](NC(=O)[C@H](CCN)NC(=O)c2ccc(Cl)c(-c3ccc(C#N)cc3)c2)[C@@H](C)O)CCNC(=O)[C@H]([C@@H](C)O)NC(=O)[C@H](CCN)NC(=O)[C@H](CCN)NC1=O [Example 39] (X33-[Dab]T[Dap][Dab][Dab][dF]L[Dab][Dab]T; lactam 4-C) | 4 µg/mL | 20 µM | 0.5 µg/mL | 1 µg/mL | 4 µg/mL | 1 µg/mL | 4 µg/mL | 0.5 µg/mL
